Assay results reported in patent US20250197357A1, “PPARG INVERSE AGONISTS AND USES THEREOF” (Flare Therapeutics Inc., priority 2022, published 2025).
pEC50: −log10 of the molar value.

Key:
[1] = target: T1, PPARG/RXRA LBD heterodimer (Homo sapiens, UniProt P37231); test: PPARγ-NCOR1 recruitment assay (TR-FRET); format: binding; conditions: NCOR1 ID2 peptide, 80 nM Rosiglitazone, 3 hours, read-out: PPARG - NCOR recruitment assay EC50
T1 construct: 2 nM WT PPARG LBD (e. coli expressed, His-TEV-Q203-Y477); fused on or other part: N-terminal His tag with TEV site on the PPARG LBD
Experimental: Compound potency (EC50) and maximal extent of NCOR1 recruitment to PPARG were assessed a TR-FRET binding assay measuring association of a biotinylated NCOR1 ID2 peptide (Biotin-[…]-amide) to PPARG/RXRA LBD heterodimer. Specifically, a 20 microliters of TR-FRET master mix consisting of 2 nM WT PPARG LBD (e. coli expressed, His-TEV-Q203-Y477; Uniprot ID P37231-2), 2 nM WT RXRA LBD or mutant S427F RXRA LBD (e. coli expressed, Flag-TEV-E228-T462; […]. Mixtures were incubated for 3 hours and read in an EnVision plate reader (Perkin Elmer) with Ex/Em 615/665. To determine the potency (EC50) and extent of NCOR1 recruitment, TR-FRET ratios were normalized to the average ratio of DMSO control wells (0%) and to the average maximum ratio for positive control compound (T0070907 (2-chloro-5-nitro-N-4-pyridinyl-benzamide); defined as 100%) in CDD Vault and analyzed using the Levenberg-Marquardt algorithm.
T1 sequence (O75376 2251-2273 limits assumed, one chain of several, further chain): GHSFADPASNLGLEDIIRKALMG

[2] = target: T2, PPARG/RXRA LBD heterodimer (Homo sapiens, UniProt P37231); test: PPARγ-MED1 blockade assay (TR-FRET); format: binding; conditions: MED1 LxxLL peptide, 80 nM Rosiglitazone, 3 hours
T2 construct: His-TEV-Q203-Y477; Uniprot ID P37231-2; made in house; host or cells: E. coli
T2 sequence (P37231 203-477 isoform P37231-2): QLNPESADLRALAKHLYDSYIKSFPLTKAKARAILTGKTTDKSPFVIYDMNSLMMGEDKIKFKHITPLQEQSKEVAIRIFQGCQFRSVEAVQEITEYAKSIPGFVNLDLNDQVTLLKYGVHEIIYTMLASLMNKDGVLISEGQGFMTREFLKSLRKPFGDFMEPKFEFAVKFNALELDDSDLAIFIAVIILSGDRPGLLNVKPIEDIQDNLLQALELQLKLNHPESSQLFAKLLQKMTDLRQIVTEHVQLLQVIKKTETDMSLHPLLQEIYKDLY
T2 sequence (P19793 228-462 partner limits assumed): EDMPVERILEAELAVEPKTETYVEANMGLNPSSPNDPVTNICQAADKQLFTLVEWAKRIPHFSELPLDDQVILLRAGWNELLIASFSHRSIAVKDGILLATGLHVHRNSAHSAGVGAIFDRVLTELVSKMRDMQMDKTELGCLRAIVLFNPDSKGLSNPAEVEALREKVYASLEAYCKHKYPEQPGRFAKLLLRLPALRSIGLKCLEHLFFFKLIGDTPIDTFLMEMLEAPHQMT
Experimental: Compound potency (IC50) and maximal extent of MED1 repulsion to PPARG were assessed a TR-FRET binding assay measuring association of a biotinylated MED1 LxxLL peptide (Biotin—[…]-amide) to PPARG/RXRA LBD heterodimer. Specifically, a 20 microliters of TR-FRET master mix consisting of 2 nM WT PPARG LBD (e. coli expressed, His-TEV-Q203-Y477; Uniprot ID P37231-2), 2 nM WT RXRA LBD (e. coli expressed, Flag-TEV-E228-T462; […]. Mixtures were incubated for 3 hours and read in an EnVision plate reader (Perkin Elmer) with Ex/Em 615/665. To determine the potency (IC50) and extent of MED1 repulsion, TR-FRET ratios were normalized to the average ratio of DMSO control wells (0%) and to the average minimum ratio for positive control compound (GW9662 (2-chloro-5-nitrobenzanilide); defined as 100%) in CDD Vault and analyzed using the Levenberg-Marquardt algorithm.

[3] = tested on: ANGPTL4, a PPARG target gene, in HT1197 (RXRA S427F mutation) cells; test: Bladder cancer pharmacodynamic assay (HT1197 cell assay, qPCR of PPARG target genes); format: cell-based; conditions: Homo sapiens; for inhibition at 0.1 µM: 100 nM compound, 24 hours, relative to DMSO control; for pEC50: 24 hours treatment, qPCR
Experimental: 5637 (PPARG amplified) and HT1197 (RXRA S427F mutation) cells were used for assessment of modulation of PPARG target genes using quantitative PCR. Cells were treated for 24 hours with PPARG inverse agonists prior to analysis of FABP4 (IDT, Cat: Hs.PT 58.20106818) and ANGPTL4 (IDT, Cat: Hs.PT 58.25480012) expression, with expression of the housekeeping gene TBP (IDT, Cat: Hs.PT 58v.39858774) used to normalize expression across samples. Quantitative PCR was performed using an ABI QuantStudio 7 Flex Reaction system. Data were analyzed and reported relative to DMSO control using the comparative Ct method (ΔΔCt).

pEC50 [1]	pEC50 [2]	pEC50 [3]	SMILES	inhibition at 0.1 µM [3] [%]
6.00 to 7.00	6.00 to 7.00		Cn1cc(-c2c(F)cc(NC(=O)c3cc(C#N)ccc3S(C)(=O)=O)cc2F)cn1 [Example 28, 5-cyano-N-(3,5-difluoro-4-(1-methyl-1H-pyrazol-4-yl)phenyl)-2-(methylsulfonyl) benzamide]	72
6.00 to 7.00	6.00 to 7.00		Cc1ccc(-c2c(F)cc(NC(=O)c3cc(C#N)ccc3S(C)(=O)=O)cc2F)cn1 [Example 4, 5-cyano-N-(3,5-difluoro-4-(6-methylpyridin-3-yl)phenyl)-2-(methylsulfonyl) benzamide]	74
5.00 to 6.00	5.00 to 6.00		CS(=O)(=O)c1ccc(C#N)cc1C(=O)Nc1ccc2cnccc2c1 [Example 14, 5-cyano-N-(isoquinolin-6-yl)-2-(methylsulfonyl) benzamide]	35
7.00 to 8.00	6.00 to 7.00		Cc1ccc(-c2c(F)cc(NC(=O)c3cc(C#N)ccc3SC(F)(F)F)cc2F)cn1 [Example 3, 5-cyano-N-(3,5-difluoro-4-(6-methylpyridin-3-yl)phenyl)-2-((trifluorometh-yl)thio)benzamide]	57
6.00 to 7.00	6.00 to 7.00		N#Cc1ccc(SC(F)(F)F)c(C(=O)Nc2cc(F)cc(Oc3ccc(Cl)cc3)c2)c1 [Example 26, N-(3-(4-chlorophenoxy)-5-fluorophenyl)-5-cyano-2-((trifluorometh-yl)thio)benzamide]	-160
7.00 to 8.00	7.00 to 8.00		CS(=O)(=O)c1cnc(C#N)cc1C(=O)Nc1cc(F)cc(F)c1 [Example 31, 2-cyano-N-(3,5-difluorophenyl)-5-(methylsulfonyl)isonicotinamide]	72
5.00 to 6.00	5.00 to 6.00		CS(=O)(=O)c1ccc(C#N)cc1C(=O)Nc1ccc(C#N)c(F)c1 [Example 21, 5-cyano-N-(4-cyano-3-fluorophenyl)-2-(methylsulfonyl) benzamide]	79
6.00 to 7.00	6.00 to 7.00		CS(=O)(=O)c1ccc(C#N)cc1C(=O)Nc1cc(F)cc(C#N)c1 [Example 25, 5-cyano-N-(3-cyano-5-fluorophenyl)-2-(methylsulfonyl) benzamide]	77
6.00 to 7.00	6.00 to 7.00	8.54	CS(=O)(=O)c1ccc(C#N)cc1C(=O)Nc1cc(F)c(-c2ccc(C(F)F)nc2)c(F)c1 [Example 13, 5-cyano-N-(4-(6-(difluoromethyl)pyridin-3-yl)-3,5-difluorophenyl)-2-(methylsulfonyl) benzamide]	80
7.00 to 8.00	6.00 to 7.00	8.89	CN1Cc2ccc(-c3c(F)cc(NC(=O)c4cc(C#N)ccc4S(C)(=O)=O)cc3F)cc2C1=O [Example 11, 5-cyano-N-(3,5-difluoro-4-(2-methyl-3-oxoisoindolin-5-yl)phenyl)-2-(methylsulfonyl) benzamide]	79
